Results published in ChEMBL document CHEMBL1201862, “PubChem BioAssay data set” (2004).
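Results reflect a 48-hour exposure of cells in 96-well plates to compound at five concentrations. The concentration for 50% growth inhibition is given as GI50.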 The source made the active and inactive calls. Rule as the data show it: active = GI50 up to about 1.1 µM and inactive = higher.

Columns and labels:
Assay in all cases: growth of human tumour cells (NCI), 48 h
KM12 = system: KM12
EKVX = system: EKVX
NCI-H460 = system: NCI-H460
SW-620 = system: SW-620
OVCAR-4 = system: OVCAR-4
SNB-75 = system: SNB-75
A498 = system: A498
NCI-H23 = system: NCI-H23
SK-MEL-2 = system: SK-MEL-2
CCRF-CEM = system: CCRF-CEM
COLO 205 = system: COLO 205
786-0 = system: 786-0
ACHN = system: ACHN
A549 = system: A549
MDA-MB-231 = system: MDA-MB-231
UACC-257 = system: UACC-257
CAKI-1 = system: CAKI-1
U-251 = system: U-251
MOLT-4 = system: MOLT-4

Measured: GI50

C=CC(C)(C)C(=C)C(=O)Nc1ccccc1I
inactive: KM12 > 100 µM | EKVX 83.9 µM | NCI-H460 > 100 µM | SW-620 > 100 µM | OVCAR-4 > 100 µM | SNB-75 > 100 µM | A498 > 100 µM | NCI-H23 > 100 µM | SK-MEL-2 > 100 µM | CCRF-CEM 19.3 µM | COLO 205 > 100 µM | 786-0 2.29 µM | ACHN > 100 µM | A549 > 100 µM | MDA-MB-231 > 100 µM | UACC-257 > 100 µM | CAKI-1 > 100 µM | U-251 > 100 µM

Cc1cc2c(c(=O)n1C)SCC2
inactive: KM12 > 100 µM | NCI-H460 > 100 µM | SW-620 > 100 µM | OVCAR-4 > 100 µM | SNB-75 > 100 µM | A498 > 100 µM | NCI-H23 > 100 µM | MOLT-4 > 100 µM | SK-MEL-2 > 100 µM | CCRF-CEM > 100 µM | COLO 205 > 100 µM | 786-0 > 100 µM | ACHN > 100 µM | A549 > 100 µM | MDA-MB-231 > 100 µM | UACC-257 > 100 µM | CAKI-1 > 100 µM | U-251 > 100 µM

C/C1=C\CC[C@@]2(C)O[C@@H]2C[C@@H]2[C@H](C/C(C)=C/CC1)OC(=O)C21CC1
inactive: KM12 > 100 µM | EKVX > 100 µM | NCI-H460 56.8 µM | SW-620 60.7 µM | SNB-75 > 100 µM | A498 > 100 µM | MOLT-4 21.7 µM | SK-MEL-2 > 100 µM | CCRF-CEM 20.6 µM | COLO 205 > 100 µM | 786-0 74.5 µM | ACHN 50.6 µM | A549 > 100 µM | MDA-MB-231 > 100 µM | UACC-257 > 100 µM | CAKI-1 > 100 µM | U-251 28.8 µM

CCOC(=O)/C(=N\Nc1ccc(-n2c(C)nc3ccccc3c2=O)cc1)C(C)=O
inactive: KM12 17.7 µM | EKVX 25.6 µM | NCI-H460 92.9 µM | SW-620 61.5 µM | SNB-75 17.2 µM | A498 99.3 µM | NCI-H23 50.5 µM | MOLT-4 13.5 µM | SK-MEL-2 54.5 µM | CCRF-CEM 40.3 µM | COLO 205 39.9 µM | 786-0 > 100 µM | ACHN 32.4 µM | A549 49.9 µM | MDA-MB-231 > 100 µM | UACC-257 26.4 µM | CAKI-1 > 100 µM | U-251 > 100 µM

CC(=O)OCC1OC(N2C(c3ccccc3)=CC(c3ccccc3)C(C#N)=C2S)C(OC(C)=O)C(OC(C)=O)C1OC(C)=O (configuration not stated)
inactive: KM12 15.7 µM | NCI-H460 5.48 µM | SW-620 54.7 µM | OVCAR-4 1.55 µM | SNB-75 10.4 µM | A498 20.2 µM | NCI-H23 7.41 µM | MOLT-4 48.6 µM | SK-MEL-2 2.27 µM | CCRF-CEM > 61.2 µM | COLO 205 1.89 µM | 786-0 2.33 µM | ACHN 5.58 µM | A549 7.62 µM | MDA-MB-231 3.7 µM | UACC-257 3.63 µM | CAKI-1 3.08 µM | U-251 3.57 µM

CCCCN1C(=O)N(c2ccc(OCC)cc2)C2N(CCCC)C1C(C)(C)C2(C)C (configuration not stated)
inactive: KM12 34.1 µM | EKVX 19.7 µM | NCI-H460 42.2 µM | SW-620 32.6 µM | OVCAR-4 37.8 µM | SNB-75 37.3 µM | A498 35.2 µM | NCI-H23 24.8 µM | SK-MEL-2 31.6 µM | CCRF-CEM 16.3 µM | COLO 205 22.5 µM | 786-0 21.5 µM | ACHN 27.7 µM | A549 56.4 µM | MDA-MB-231 41.5 µM | UACC-257 27.5 µM | CAKI-1 26.3 µM | U-251 37 µM
